Test results as given in paper PMC10043345, “Discovery of BAR502, as potent steroidal antagonist of leukemia inhibitory factor receptor for the treatment of pancreatic adenocarcinoma” (Frontiers in Oncology, 2023).
Values joined by “and” are separate entries in the source; they are usually repeats but may differ in a detail not shown here. Identical values can stand only once.

Key:
[1] = molecular target: T1, LIF/LIFR complex (Homo sapiens, UniProt P42702); test: Alpha Screen inhibition of LIFR/LIF binding (cell-free); conditions: for IC50: cell-free, LIFR 4.5 nM, biotinylated LIF 9 nM, read-out: LIFR IC50 AlphaScreen (inhibition of LIFR/LIF binding)
T1 construct: purchased Sino Biological (LIFR); R&D Systems (LIF)
T1 sequence (P42702 45-833 limits assumed): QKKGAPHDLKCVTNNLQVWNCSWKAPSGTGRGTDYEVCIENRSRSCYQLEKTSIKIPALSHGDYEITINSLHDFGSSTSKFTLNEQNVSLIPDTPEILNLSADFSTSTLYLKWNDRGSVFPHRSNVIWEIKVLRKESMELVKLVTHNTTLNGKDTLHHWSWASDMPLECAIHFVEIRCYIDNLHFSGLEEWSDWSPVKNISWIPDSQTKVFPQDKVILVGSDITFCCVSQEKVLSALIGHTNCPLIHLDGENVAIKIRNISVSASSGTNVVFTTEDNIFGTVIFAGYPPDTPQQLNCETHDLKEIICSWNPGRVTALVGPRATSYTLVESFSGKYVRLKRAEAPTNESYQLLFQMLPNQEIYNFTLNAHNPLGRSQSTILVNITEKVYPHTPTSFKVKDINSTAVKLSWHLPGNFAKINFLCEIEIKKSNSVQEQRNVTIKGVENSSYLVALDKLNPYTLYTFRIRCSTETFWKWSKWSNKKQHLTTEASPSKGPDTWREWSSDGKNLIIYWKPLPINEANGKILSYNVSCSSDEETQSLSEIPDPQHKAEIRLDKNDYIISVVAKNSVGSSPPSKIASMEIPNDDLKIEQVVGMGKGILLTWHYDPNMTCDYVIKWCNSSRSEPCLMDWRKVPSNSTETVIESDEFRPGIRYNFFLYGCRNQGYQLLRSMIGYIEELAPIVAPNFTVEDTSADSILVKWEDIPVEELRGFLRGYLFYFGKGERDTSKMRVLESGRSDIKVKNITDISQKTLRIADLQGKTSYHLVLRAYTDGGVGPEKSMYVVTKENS
Experimental: Recombinant human LIFR (His Tag) and biotinylated recombinant human LIF were purchased from Sino Biologicals (Sino Biological Europe GmbH, Dusseldorf, Germany) and R&D Systems (Abingdon, UK), respectively, and both were reconstituted as required by the manufacturer. […] The assay was carried out in white, low-volume, 384-well AlphaPlates (PerkinElmer, Waltham, MA, USA) using a final volume of 25 µL and an assay buffer containing 25 mM Hepes (pH 7.4), 100 mM NaCl, and 0.005% Kathon. The concentration of DMSO in each well was maintained at 5%. […] Then, LIF was added (biotinylated, final concentration 9 nM), and the samples were incubated for 15 min prior to adding His-Tag acceptor beads (final concentration 20 ng/µL) for 30 min. Then, streptavidin donor beads were added (final concentration 20 ng/µL), and the plate was incubated in the dark for 2 h and then read in an EnSpire Alpha multimode plate reader (PerkinElmer, Waltham, MA, USA).

[2] = molecular target: T2, human GPBAR1 (Homo sapiens, UniProt Q8TDU6); test: GPBAR1 transactivation (CRE-luciferase) in HEK-293T cells; assay type: cell-based
T2 construct: expressed in transfected cells; host or cells: HEK-293T
T2 sequence (Q8TDU6 1-330): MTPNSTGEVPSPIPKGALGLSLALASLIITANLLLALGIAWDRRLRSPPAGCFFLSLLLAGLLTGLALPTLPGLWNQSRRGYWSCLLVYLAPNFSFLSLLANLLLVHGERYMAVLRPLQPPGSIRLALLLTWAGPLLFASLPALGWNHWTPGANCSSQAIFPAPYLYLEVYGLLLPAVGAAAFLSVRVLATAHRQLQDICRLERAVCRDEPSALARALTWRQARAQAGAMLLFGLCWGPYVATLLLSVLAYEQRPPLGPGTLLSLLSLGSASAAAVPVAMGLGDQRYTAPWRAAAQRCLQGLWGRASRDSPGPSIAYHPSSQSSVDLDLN

effect on LIF/LIFR complex formation (LIFR antagonism), in words ([1]; cell-free Alpha Screen)	IC50 ([2]; Hek293T, transactivation induced by TLCA (10 μM), read-out: Hek293T GPBAR1 Antagonism IC50) [µM]	SMILES	IC50 [1]	EC50 ([2]; transactivation, agonism, read-out: GPBAR1 EC50 Transact) [µM]
–	–	CC[C@H]1[C@@H](O)C2C3CC[C@H]([C@H](C)CCO)[C@@]3(C)CCC2[C@@]2(C)CC[C@@H](O)C[C@@H]12 (some centres unmarked) [BAR502]	3.6 µM and 3.59 µM	0.4 ± 0.1
inactive	19	OCc1ccc(-c2ccc(OCc3cc(-c4c(Cl)cccc4Cl)no3)cc2)cc1 [PDL103, (4’-((3-(2,6-dichlorophenyl)isoxazol-5-yl)methoxy)-[1,1’-biphenyl]-4-yl)methanol]	97.5 ± 29.3 µM	–
